{"source": "patent US7354925B2", "about": "“Alpha aryl or heteroaryl methyl beta piperidino propanamide compounds as ORL1-receptor antagonists” (Pfizer Inc., priority 2004, dated 2008)", "key": {"[1]": {"molecular_target": "T1, HERG type potassium channel (Homo sapiens, UniProt Q12809)", "T1 construct": "expressed in transfected cells; host or cells: HEK-293 cells expressing HERG; membrane homogenate", "T1 sequence (Q12809 whole entry)": "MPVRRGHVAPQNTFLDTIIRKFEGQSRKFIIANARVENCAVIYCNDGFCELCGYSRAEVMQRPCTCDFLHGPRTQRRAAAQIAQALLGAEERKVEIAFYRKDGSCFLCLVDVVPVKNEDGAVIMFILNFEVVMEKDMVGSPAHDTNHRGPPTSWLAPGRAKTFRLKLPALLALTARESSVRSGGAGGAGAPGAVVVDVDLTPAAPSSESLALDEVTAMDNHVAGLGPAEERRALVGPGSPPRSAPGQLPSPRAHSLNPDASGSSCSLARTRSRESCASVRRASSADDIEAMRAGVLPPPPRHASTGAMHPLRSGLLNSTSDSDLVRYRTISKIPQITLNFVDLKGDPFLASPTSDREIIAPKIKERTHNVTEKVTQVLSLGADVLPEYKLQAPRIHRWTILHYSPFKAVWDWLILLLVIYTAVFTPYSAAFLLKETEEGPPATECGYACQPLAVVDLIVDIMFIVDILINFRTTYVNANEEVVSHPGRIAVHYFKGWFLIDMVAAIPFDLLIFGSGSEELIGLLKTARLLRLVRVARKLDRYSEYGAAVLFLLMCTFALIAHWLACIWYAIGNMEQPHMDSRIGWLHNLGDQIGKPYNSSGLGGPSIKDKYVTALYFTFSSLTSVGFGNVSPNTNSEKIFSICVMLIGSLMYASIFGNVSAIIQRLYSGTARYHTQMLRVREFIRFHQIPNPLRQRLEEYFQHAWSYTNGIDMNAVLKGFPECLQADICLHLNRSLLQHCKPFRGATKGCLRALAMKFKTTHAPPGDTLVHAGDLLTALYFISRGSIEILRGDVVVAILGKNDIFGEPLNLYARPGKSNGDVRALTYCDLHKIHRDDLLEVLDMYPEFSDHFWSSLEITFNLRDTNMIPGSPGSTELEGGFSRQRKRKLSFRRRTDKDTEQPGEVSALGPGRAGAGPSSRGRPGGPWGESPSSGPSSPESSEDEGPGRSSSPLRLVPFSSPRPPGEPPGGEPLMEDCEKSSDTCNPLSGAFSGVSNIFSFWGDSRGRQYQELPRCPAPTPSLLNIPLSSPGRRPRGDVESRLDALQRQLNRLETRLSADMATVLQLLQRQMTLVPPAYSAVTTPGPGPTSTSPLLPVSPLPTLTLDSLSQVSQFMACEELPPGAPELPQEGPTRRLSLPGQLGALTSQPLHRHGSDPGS", "assay_type": "binding", "description": "Cell paste of HEK-293 cells expressing the HERG product can be suspended in 10-fold volume of 50 mM Tris buffer adjusted at pH 7.5 at 25° C. with 2 M HCl containing 1 mM MgCl2, 10 mM KCl. The cells were homogenized using a Polytron homogenizer (at the maximum power for 20 seconds) and centrifuged at 48,000 g for 20 min at 4° C. The pellet was resuspended, homogenized and centrifuged once more in the same manner. The resultant supernatant was discarded and the final pellet was resuspended (10-fold volume of 50 mM Tris buffer) and homogenized at the maximum power for 20 sec. The membrane homogenate was aliquoted and stored at −80° C. until use. Analiquot was used for protein concentration determination using a Protein Assay Rapid Kit and ARVO SX plate reader (Wallac). […] Saturation was determined by incubating 20 μL of [^3H]-dofetilide and 160 μl of membrane homogenates (20-30 μg protein per well) for 60 min at room temperature in the absence or presence of 10 μM dofetilide at final concentrations (20 μL) for total or nonspecific binding, respectively. […] Receptor-bound radioactivity was quantified by liquid scintillation counting using Packard LS counter.\nFor the competition assay, compounds were diluted in 96 well polypropylene plates as 4-point dilutions in semi-log format. […] Receptor-bound radio activity was quantified by counting Wallac MicroBeta plate counter."}, "human ORL1 receptor": {"molecular_target": "T2, human ORL1 receptor (Homo sapiens, UniProt P41146)", "T2 construct": "purchased PerkinElmer; host or cells: HEK-293 (transfected), membranes", "T2 sequence (P41146 whole entry)": "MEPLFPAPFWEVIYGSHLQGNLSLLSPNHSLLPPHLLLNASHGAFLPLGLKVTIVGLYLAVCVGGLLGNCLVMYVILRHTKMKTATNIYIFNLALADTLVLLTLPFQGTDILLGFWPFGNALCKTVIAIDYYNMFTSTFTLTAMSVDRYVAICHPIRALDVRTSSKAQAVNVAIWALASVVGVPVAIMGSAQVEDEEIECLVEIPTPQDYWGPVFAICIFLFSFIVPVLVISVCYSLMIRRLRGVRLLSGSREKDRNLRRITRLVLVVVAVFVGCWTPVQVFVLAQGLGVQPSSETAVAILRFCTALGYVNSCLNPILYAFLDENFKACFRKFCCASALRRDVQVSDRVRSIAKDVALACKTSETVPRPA", "test": "ORL1-receptor binding assay", "settings": "[3H]nociceptin, human ORL1 receptor transfected HEK-293 cell membranes; read-out: Ki value with regard to binding affinity for the ORL1 receptor", "description": "The human ORL1 receptor transfected HEK-293 cell membranes (PerkinElmer) were incubated for 45 min at room temperature with 0.4 nM [^3H]nociceptin, 1.0 mg of wheat germ agglutinin (WGA)-coated SPA beads and various concentrations of test compounds in a final volume of 200 μL of 50 mM HEPES buffer pH 7.4 containing 10 mM MgCl2 and 1 mM EDTA. Non-specific binding (NSB) was determined by the addition of 1 μM unlabeled nociceptin. After the reaction, the assay plate was centrifuged at 1,000 rpm for 1 min and then the radioactivity was measured by WALLAC 1450 MicroBeta Trilux."}}, "note": "Where a name gives a salt, the structure may show the parent alone."}
{"smiles": "CN1C(=O)C(CN2CCC3(CCc4ccccc43)CC2)Cc2ccccc21", "note": "(stereo not drawn) [Compound (i)]", "values": [{"measurement": "activity in the dofetilide binding assay", "setting": "[1]", "value": "potent activity"}]}
{"smiles": "CN(C)C(=O)C(Cc1cscn1)CN1CCC2(CC1)OCc1ccc(F)cc12", "note": "(single isomer, unassigned; (-)) [Example 92, (−)-3-(6-FLUORO-1′H,3H-SPIRO[2-BENZOFURAN-1,4′-PIPERIDIN]-1′-YL)-N,N-DIMETHYL-2-(1,3-THIAZOL-4-YLMETHYL)P[…], CITRATE]", "values": [{"measurement": "Ki", "setting": "human ORL1 receptor", "value": 5, "unit": "nM"}]}
{"smiles": "CN(C)C(=O)C(CN1CCC2(CC1)OCc1ccc(F)cc12)Cn1cccn1", "note": "(single isomer, unassigned; (-)) [Example 102, (−)-3-(6-FLUORO-1′H,3H-SPIRO[2-BENZOFURAN-1,4′-PIPERIDIN]-1′-YL)-N,N-DIMETHYL-2-(1H-PYRAZOL-1-YLMETHYL)P[…], CITRATE]", "values": [{"measurement": "Ki", "setting": "human ORL1 receptor", "value": 12, "unit": "nM"}]}
